Test results from patent publication US6994981B2, “Modulators of paraptosis and related methods” (The Buck Institute, priority 2002, dated 2006).
Residues, ends and D or L forms follow the SMILES beside them. No end group written: not given here. *: point of attachment. Cbz = O=C(OCc1ccccc1)*; CH2F = FC*

Tests used:
[1] = tested on: 293T cells transfected with NK1R; assay: SP-induced, NK1R-mediated cell death in 293T cells transfected with NK1R, trypan blue and staining; format: cell-based, human; conditions: caspase inhibitors at 50 μM
Experimental: (§1) Human embryonic kidney 293T cells were grown as described in Example I. Transient transfection was performed using Superfect (Qiagen) as described by the manufacturer. Briefly, 2×10^5 cells/well were seeded into 35 mm wells 16 hr prior to transfection. Superfect:DNA complexes were added at a 5 μl:2 μg ratio for 3 hr; then the medium was replaced and after 24 hr SP was added. At 24–48 hr after addition of SP cell death was quantified as follows: the media containing floating cells were collected and centrifuged 10 min at 2000×g, the pellet was resuspended in PBS/trypan blue and the cells were counted using a hematocytometer. When other compounds were used, they were added at the same time as SP: zVAD.fmk or BAF was added at 50 μM and obtained from Enzyme System Products, Livermore, Calif.
Briefly, the method entailed cloning the full-length (1.2 kb) NK1R cDNA (Genbank Accession No. M31477) by RT-PCR from adult rat hippocampal RNA into the XbaI/EcoRI sites of the vector pcDNA3.1 (Invitrogen), using the following oligonucleotides: forward 5′[…] 3′ (SEQ ID NO:2); reverse 5′[…] 3′ (SEQ ID NO:3).
Cells were stained according to the manufacturer's instructions (Clontech). Briefly, cellswere washed with binding buffer and incubated with FITC-Annexin-V or EGFPAnnexin-V for 5–10 min and fixed with 4% paraformaldehyde.
Cells were fixed 10 min with 4% paraformaldehyde and stained according to the manufacturer's instructions (Promega).
(§2) The protein kinase inhibitors were added 30 min before SP exposure at the following concentrations: 10 μM Rp-8-Br-cAMPS (adenosin 3′,5′-cyclic monophosphorothioate, 8-bromo-, Rp-isomer, sodium salt) which is a PKA inhibitor; 50 nM Calphostin C, which is a PKC inhibitor; 10 μM PD 98059 which is a MAPKK (MEK) inhibitor. These compounds were obtained from Calbiochem. Viability was quantified by trypan blue staining of the total cell population.

[2] = tested on: paraptosis induced by caspase 7, caspase 8 or caspase 9; assay: Inhibition of paraptosis induced by caspases; format: cell-based
Experimental: Test compounds were added to IGFIR-IC transfected 293T cells at the time of transfection.

[3] = tested on: caspase-8 transfected cells; assay: Apoptosis induced by over-expression of caspase-8 in 293T cells; format: cell-based, human; conditions: caspase inhibitors at 50 μM
Experimental: as §1

[4] = tested on: striatal, cortical, and hippocampal neurons; assay: SP-induced cell death in primary striatal, cortical and hippocampal neurons, trypan blue viability and staining; format: cell-based, rat; conditions: for effect on SP-induced cell death in neurons: caspase inhibitors at 50 μM
Experimental: Rat neuronal primary cell cultures were also used to assay for inducers and inhibitors of paraptosis. Briefly, primary striatal, cortical and hippocampal cultures were prepared from 17-day-old Sprague-Dawley rat embryos (B&K). The tissue was dissected, minced and trypsinized for five minutes using 0.25% trypsin (Cell Grow). After the addition of 10% horse serum (Life Technologies) to inhibit the trypsin, the cell suspension was triturated 15–20 times with a 10 ml syringe and centrifuged for five minutes at 800×g. The pellet was resuspended in MEM-PAK (UCSF Cell Culture facility), supplemented with 2.02 gm glucose, 2 mM GLUTAMAX™ (Life Technologies) and penicillin/streptomycin (100 U/ml). The suspension was filtered through a […] cell strainer and the final culture medium contained 5% horse serum. Subsequently, 3-4×10^5 cells per Cm^2 were seeded onto either poly-D-lysine precoated 8-well chamber slides (Becton-Dickson Labware) or 96 well plates precoated with […] of poly-D-lysine (Sigma) in water. After 30 minutes of incubation time, unattached cells were removed together with the medium and replaced with glucose enriched MEM-PAK plus 5% horse serum. The cultures were then incubated at 37° C. in 95% air 5% carbon dioxide with 95% humidity. Cultures were used for experiments between day 1 and day 7 when glial contamination was at a minimum.
Primary neuronal cells were prepared as described in Example I. SP (SIGMA) at a concentration of 0.1 nM–100 μM was added 24–48 hrs after seeding, in the presence of 2.5% horse serum. When the cultures were maintained for more than 5 days, 10 μM cytosine arabinoside was added for 24 hours, beginning 3 days after plating the cells. Viability was quantified by trypan blue staining of the total cell population.
The following compounds were added at the same time as SP in the indicated experiments: 5 nM L-732, 138; 1 nM L-733,060; 1 μg/ml Actinomycin D or 1 μg/ml Cycloheximide. All of these compounds were obtained from SIGMA. The caspase inhibitors zVAD.fmk and BAF were added at 50 μM and obtained from Enzyme System Products, Livermore, Calif.
Either neuronal primary cultures or human embryonic kidney 293T cells were fixed with 4% paraformaldehyde and stained with 0.5 μg/ml DAPI (Molecular Probes) or Hoechst(SIGMA). […]
as §2

paraptosis = conditions: cited from earlier work
[5] = tested on: rat neuronal primary cell cultures; assay: Induction of paraptosis in rat neuronal primary cell cultures, LDH cell death assay; format: cell-based
Experimental: Rat neuronal primary cell cultures were also used to assay for inducers and inhibitors of paraptosis. Briefly, primary striatal, cortical and hippocampal cultures were prepared from 17-day-old Sprague-Dawley rat embryos (B&K). The tissue was dissected, minced and trypsinized for five minutes using 0.25% trypsin (Cell Grow). After the addition of 10% horse serum (Life Technologies) to inhibit the trypsin, the cell suspension was triturated 15–20 times with a 10 ml syringe and centrifuged for five minutes at 800×g. The pellet was resuspended in MEM-PAK (UCSF Cell Culture facility), supplemented with 2.02 gm glucose, 2 mM GLUTAMAX™ (Life Technologies) and penicillin/streptomycin (100 U/ml). […]
Subsequently, compounds were added to 293T cells and/or rat neuronal primary cell culture cells in order to determine if the compounds could induce paraptosis. Cell death was assayed using the lactate dehydrogenase (LDH) assay, in which the relative amount of enzyme released from dying cells in the medium is measured by following the disappearance of nicotinamide adenine dinucleotide, reduced form (NADH) in the following reaction: pyruvate+NADH <−>NAD^++ lactate. […] NADH disappearance was assessed by kinetic photmetric readings at a 340 nm wavelength at 19 minute intervals over a period of 2 hours and 30 minutes.

[6] = molecular target: neurokinin-1 receptor (NK1R) (Rattus norvegicus, UniProt P14600); conditions: cited from earlier work
Chain of neurokinin-1 receptor (NK1R) (P14600 whole entry): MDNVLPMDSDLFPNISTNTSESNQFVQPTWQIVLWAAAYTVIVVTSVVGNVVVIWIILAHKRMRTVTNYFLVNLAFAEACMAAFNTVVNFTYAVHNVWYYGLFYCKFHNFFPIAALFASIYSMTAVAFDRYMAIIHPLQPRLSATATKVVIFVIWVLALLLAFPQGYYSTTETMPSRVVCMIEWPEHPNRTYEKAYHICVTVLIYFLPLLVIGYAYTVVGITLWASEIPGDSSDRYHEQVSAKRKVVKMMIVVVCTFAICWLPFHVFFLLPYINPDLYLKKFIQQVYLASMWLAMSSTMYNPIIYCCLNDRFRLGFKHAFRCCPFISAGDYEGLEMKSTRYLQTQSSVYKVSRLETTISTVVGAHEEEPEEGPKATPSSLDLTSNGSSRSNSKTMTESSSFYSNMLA

COC(=O)CC(NC(=O)OC(C)(C)C)C(=O)CF (stereo not shown) [BAF, Box-aspartyl.fmk]
effect on NK1R-mediated cell death in 293T cells [1]: lack of effect | inhibition of paraptosis induction by caspase-7 and caspase-8 [2]: subject to inhibition | effect on apoptosis induced by over-expression of caspase-8 [3]: completely abolished | effect on SP-induced cell death in neurons [4]: not inhibited | effect of caspase inhibitors on paraptosis (paraptosis): lack of effect

N[C@@H](CCC(=O)O)C(=O)O [Glutamic Acid, (S)-2-aminopentanedioic acid]
concentration at which found to induce paraptosis [5]: 50 to 500 µM

SP 6–11: truncated form of SP containing amino acids 6 through 11 of the SP polypeptide (QFFGLM; ends and bridges not checked)
affinity for NK1R [6]: good affinity | induction of cell death by NK1R agonists ([4]; compared with SP): able to induce cell death as well as SP

COC(=O)C[C@H](NC(=O)[C@H](C)NC(=O)[C@@H](NC(=O)OCc1ccccc1)C(C)C)C(=O)CF [zVAD.fmk] (Cbz-Val-Ala-Asp(OMe)-CH2F)
effect on NK1R-mediated cell death in 293T cells [1]: lack of effect | inhibition of paraptosis induction by caspase-7 and caspase-8 [2]: subject to inhibition | effect on apoptosis induced by over-expression of caspase-8 [3]: completely abolished | effect on SP-induced cell death in neurons [4]: not inhibited | effect of caspase inhibitors on paraptosis (paraptosis): lack of effect
